Columns and labels:
pigeons [1] = experiment: Deterrence of pigeons from steel beams of aircraft hangar (Example 5); type: in vivo; conditions: 50% by weight aqueous dispersion of 9,10-anthraquinone
Description: (§1) In the following examples, the treating material was an aqueous dispersion of small particles of 9,10-anthraquinone containing 50% by weight of the anthraquinone and a small amount of surfactant.
Pigeons regularly roosted on the exposed steel beams within a large aircraft hangar in Wilmington Del.

fish crows = experiment: Avian perching deterrent test, fish crows (Example 7); type: in vivo, Corvus ossigragus
Description: (§2) Two (2) pens (10×20×6 feet) constructed of wood and aviary wire in a roofed outdoor aviary with a concrete floor were erected. At one end of each pen a water bowl and a food bowl containing the birds' maintenance diet was provided. On the morning of day 1, the test birds were transferred from their holding cages to each of the test pens. In each pen, there was one centrally located perch. At 0800 on the morning of day 2, this perch was removed and 2 test perches were installed, one in each of the corners at the end of the pen away from the food and water. For red-winged blackbirds (Agelaius phoeniceus) and brown-headed cowbirds (Molothrus ater), the perches were made of aluminum rod, 1.2 m long and 1.0 cm in diameter. For fish crows (Corvus ossigragus), the test perches were hollow stainless steel pipe, 1.2-m long and 2.25 cm in diameter. One of the test perches (randomly determined) was coated with a product containing 50% AQ as the active ingredient (the "repellent"), and the other was uncoated. The repellent was applied to the perches with a paint brush 24-48 hours before the test. The repellent was easily applied and appeared somewhat like thinned paint. It covered the metal surfaces very well, with some streaking, and formed an opaque coating that was dry to the touch by the start of the trial. Approximately 7.5 g wet weight was applied to each crow perch and approximately 3.5 g to each blackbird/cowbird perch.
(§3) Test perches remained in the pens until 1500 on day 3 at which time the birds were captured, banded and released. The activity was videotaped in each pen during 3 30-min periods daily: 0800-0830, 1100-1130, and 1400-1430. The videotapes were reviewed to determine bird use of the perches. The number of birds on each of the test perches were recorded at 1-min intervals. Activity and locations of birds not on the perches was also noted. […]
(§4) To analyze responses of the birds to the perch treatment, the mean number of birds on each perch during each of the 6 30-min observation periods was used. The data are expressed as birds/min. […]

geese [2] = experiment: Deterrence of geese from loafing/roosting on grassy turf (Example 1); type: in vivo
Protocol: A formulation containing 50% wt., basis total formulation, of 9,10-anthraquinone dispersed in water with a small amount of surfactant and thickener was prepared and sprayed onto untreated grassy turf in an area where geese normally loaf or roost. One-third acre of turf was treated with areas of untreated turf bordering on both sides of the treated area. The dispersed anthraquinone particles were applied at a rate of 1 pint/acre (approximately 50 mg/m^2) on the treated area. […] The differences in the effects of the treated area versus the untreated area were easily noted. […] The geese were repelled from the treated area for approximately two weeks until the turf was cut. After cutting, another treatment was applied. The dispersed anthraquinone particles were applied at a rate of 1/2 pint/acre (approximately 25 mg/m^2) in the same manner of treating one strip of turf bordered by untreated turf. […] The test was continued for approximately two weeks. The test was concluded due to snow.

birds [3] = experiment: Avian perching deterrent test, all 3 test species (Example 7); type: in vivo, red-winged blackbirds, brown-headed cowbirds, fish crows
Description: as §2
Test perches remained in the pens until 1500 on day 3 at which time the birds were captured, banded and released. The activity was videotaped in each pen during 3 30-min periods daily: 0800-0830, 1100-1130, and 1400-1430. The videotapes were reviewed to determine bird use of the perches. The number of birds on each of the test perches were recorded at 1-min intervals. Activity and locations of birds not on the perches was also noted. Five (5) groups of blackbirds and cowbirds and 4 groups of fish crows were tested. For blackbirds and cowbirds, there were 4 birds in each test group. For fish crows, we used 2 birds per pen.
To analyze responses of the birds to the perch treatment, the mean number of birds on each perch during each of the 6 30-min observation periods was used. The data are expressed as birds/min. A separate 2-way repeated measures analysis of variance for each of the 3 bird species was performed to test the null hypothesis of equal use between the two perches.

pigeons [4] = experiment: Deterrence of pigeons from metal beam of sports arena (Example 6); type: in vivo; conditions: four ounces of 50% dispersion in 29 gallons of water
Description: as §1
Four ounces of a 50% by weight dispersion of anthraquinone in water were mixed with 29 gallons of water. The mixture was sprayed on a twenty foot section of a metal beam in the superstructure of a large sports arena. The treated beam section was open to the atmosphere and had become a roost for pigeons. Prior to the treatment, a section of walkway beneath the beam was cleaned weekly of 50-60 bird droppings. After more than 30 days following treatment of the beam with the above-described dilute anthraquinone dispersion, the pigeons had not returned to the roosting site.

birds [5] = experiment: Pen and field observations of bird behavior and adverse effects; type: in vivo
Description: Pen and field observations of bird behavior were made throughout the studies. In no situation were adverse effects or discomfort to the observed birds. In feeding on rice seeds, the birds squeezed the grain from the hull then ejected the hull from their mouths and ate only the inner grain.

seagulls = experiment: Deterrence of seagulls from flat roof (Example 3); type: in vivo; conditions: 50% by weight aqueous dispersion of 9,10-anthraquinone
Description: as §1
A large number of seagulls regularly roosted on the flat roof of an industrial building in Northern California.

geese [6] = experiment: Deterrence of geese from 6.2 acre grassy test site (Example 2); type: in vivo
Protocol: A grassy test site having an area of 6.2 acres was selected within the grounds of a large campus style research complex having a substantial flock of geese in residence, which numbers 250-300 geese during the day and as many as 500 geese in the evening hours. In order to determine when daily observations should be made, the site was observed beforehand to determine the times during which the maximum number of geese were on the test site. Observations were conducted at the same time(s) each day in such manner that the behavior of the geese could be observed without disturbance. In addition, the number of droppings in selected areas of the site were counted each day, recorded and then removed from the test area by raking.
Following 10 days observation of the untreated test site, the above-described goose repellent composition was sprayed on the test area using a calibrated spray tank and a fan-shaped head sprayer. The liquid spray contained one gallon of repellent per 140 gallons of water and the rate of application was 2.77 pounds of AQ per acre of the mixture. In the absence of rain, the applied composition fully dried on the blades of grass within 24 hours.

red-winged blackbirds = experiment: Avian perching deterrent test, red-winged blackbirds (Example 7); type: in vivo, Agelaius phoeniceus
Description: as §2, §3, §4

brown-headed cowbirds = experiment: Avian perching deterrent test, brown-headed cowbirds (Example 7); type: in vivo, Molothrus ater
Description: as §2, with “The repellent was applied to the perches with a paint brush 24-48 hours before the test. The repellent was easily applied and appeared somewhat like thinned paint. It covered the metal surfaces very well, with some streaking, and formed an opaque coating that was dry to the touch by the start of the trial. Approximately 7.5 g wet weight was applied to each crow perch and approximately 3.5 g to each blackbird/cowbird perch.” left out
Test perches remained in the pens until 1500 on day 3 at which time the birds were captured, banded and released. […] The number of birds on each of the test perches were recorded at 1-min intervals. […]
as §4

crows = experiment: Deterrence of crows from flat roof (Example 4); type: in vivo; conditions: 50% by weight aqueous dispersion of 9,10-anthraquinone
Description: as §1
In Philadelphia Pa., a large number of crows, estimated at over two hundred thousand, regularly roosted on the flat roof of an industrial building.

[7] = LD50 in northern bobwhite quail; conditions: in vivo, separate study
[8] = treated on day 10, following a heavy rain

O=C1c2ccccc2C(=O)c2ccccc21 [9,10-anthraquinone]
return of pigeons (pigeons [1]): the pigeons did not return
use of the treated perch (fish crows; 50% AQ coating, SE=0.08, untreated perch 1.28 (SE=0.08), P=0.014): 0.64 birds/min
use of the untreated perch relative to treated perch (fish crows; P=0.014): approximately twice
use of treated perch from day 1 to day 2 (fish crows; day x perch interaction P=0.090): decreased use of the treated perch from day 1 to day 2
repellency (geese [2]; 1/2 pint/acre (approximately 25 mg/m^2), after cutting, about two weeks): The same repellency was exhibited
behavior of geese that entered the treated area (geese [2]; 1 pint/acre (approximately 50 mg/m^2)): immediately ceased eating, exited the treated area, entered a nearby pond and began to wash or rinse themselves
preference of test species (birds [3]; 2-day trials, perch coated with repellent vs untreated): each of the 3 test species displayed a preference for the untreated perch over the one coated with repellent
signs of illness on videotapes (birds [3]; e.g. decreased activity, fluffed feathers, vomiting): no sign of illness was observed
discomfort on the treated perch (birds [3]; in vivo): no indication that they were uncomfortable or bothered by the feel of the perch was observed
initial reluctance to use the treated perches (birds [3]; in vivo): No initial reluctance by birds to use the treated perches was observed
time following treatment during which pigeons had not returned to the roosting site (pigeons [4]): more than 30 days
irritation of birds exposed on food (birds [5]; exposed to anthraquinone on food): no sign of irritation
effect of treated seeds on birds' behavior or pain (birds [5]; feeding on treated rice seeds): did not affect the birds' behavior or induce pain
effect of consumption on feeding behavior (birds [5]; grams of feed per day): did not affect feeding behavior
death of test birds (birds [5]; upon completion of all studies): No test birds died
use of treated roof by gulls (seagulls): the gulls did not further use the surface for roosting
goose count, second day after application (geese [6]; 2.77 pounds of AQ per acre, before treatment average about 150 geese): zero
goose count, day after application (geese [6]; 2.77 pounds of AQ per acre, before treatment average about 150 geese (45 to 305)): about 110 geese
period for which number of geese remained quite low in treated area vs surrounding untreated areas (geese [6]; following the treatment): more than 3 months
birds' behavior after treatment of the test area (geese [6]; in vivo): large numbers of birds were observed milling around, but not entering the treated area
number of geese, days 12-23 (geese [6]; treated on day 10): only a few geese were observed from time-to-time
number of geese, day 11 (geese [6]; treated on day 10 (over 300 geese), 2.77 pounds of AQ per acre): 109 geese
number of geese, day 12 (geese [6]; treated on day 10, 2.77 pounds of AQ per acre): zero
goose count, day 23 (geese [6]; [8]): 27 geese
number of droppings, day 23 (geese [6]; [8]): 13 droppings
number of geese, day 18 (geese [6]; treated on day 10, very low quantity of droppings): 18 geese
use of the treated perch (red-winged blackbirds; 50% AQ coating, SE=0.06, untreated perch 0.86 (SE=0.10), P=0.067): 0.41 birds/min
use of the untreated perch relative to treated perch (red-winged blackbirds; P=0.067): more than twice
use of treated perch from day 1 to day 2 (red-winged blackbirds; day x perch interaction P<0.001): decrease use of the treated perch from day 1 to day 2
use of the treated perch (brown-headed cowbirds; 50% AQ coating, SE=0.14, untreated perch 1.70 (SE=0.23), P=0.015): 0.62 birds/min
bird use of each perch on the second day (brown-headed cowbirds; day x perch interaction P=0.222): bird use of each perch declined on the second day
return of crows (crows): the crows did not return
LD50 [7]: > 2000 mg/kg

From US6328986A, “Method of deterring birds from plant and structural surfaces” (priority 2000, dated 2001)
